Results from paper PMC10539439 (Pharmacological Reports, 2023).
“And” between values parts separate entries of the source, which are not always exact repeats. Identical values can stand only once. Like-named read-outs stand apart in the source and are kept apart here.

Legend:
α2A-adrenoceptor = target: T1, α2A-adrenoceptor (Homo sapiens, UniProt P08913); assay: Intrinsic activity, Tango beta-lactamase reporter assay; format: cell-based
T1 sequence (P08913 1-465): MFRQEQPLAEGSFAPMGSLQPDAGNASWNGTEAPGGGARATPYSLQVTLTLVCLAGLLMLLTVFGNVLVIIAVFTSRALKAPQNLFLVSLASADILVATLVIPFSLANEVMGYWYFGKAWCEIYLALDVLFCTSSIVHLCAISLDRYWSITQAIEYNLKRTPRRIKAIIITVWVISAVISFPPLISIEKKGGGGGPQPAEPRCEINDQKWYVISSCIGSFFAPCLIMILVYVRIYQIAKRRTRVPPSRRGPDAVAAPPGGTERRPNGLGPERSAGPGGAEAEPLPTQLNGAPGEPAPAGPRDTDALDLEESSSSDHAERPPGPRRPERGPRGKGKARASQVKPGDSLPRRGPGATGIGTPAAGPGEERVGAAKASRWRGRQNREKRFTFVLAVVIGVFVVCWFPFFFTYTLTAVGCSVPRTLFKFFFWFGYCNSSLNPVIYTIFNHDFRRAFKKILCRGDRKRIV
Procedure: The intrinsic activity at α2A-adrenoceptor was assessed by the Tango assay technology that uses a mammalian-optimized beta-lactamase (bla) reporter gene combined with an FRET-enabled substrate to provide reliable and sensitive detection in cells. Cells are loaded with an engineered fluorescent substrate containing two fluorophores, coumarin, and fluorescein. In the absence of bla expression, the substrate molecule remains intact. In this state, excitation of the coumarin results in a transfer of fluorescence resonance energy to the fluorescein moiety and emission of green fluorescent light. However, in the presence of bla expression, the substrate is cleaved, separating the fluorophores and disrupting energy transfer. Excitation of the coumarin in the presence of bla enzyme activity results in a blue fluorescence signal.
Intrinsic activity assay was performed according to the manufacturer of the assay kit (Invitrogen, Life Technologies). Cells were harvested and resuspended in an assay medium at a density of 312,500 cells/ml. 32 μL per well of cell suspension was added to the test compound wells, the unstimulated control wells, and the stimulated control wells, and incubated for 16–24 h. To perform an agonist assay, 8 μL of 5 × of agonist in the assay medium was added to the cells. […] Then, the agonist and antagonist plates were incubated in a humidified incubator at 37 °C/5% CO2 for 5 h. After the incubation, 8 μL of LiveBLAzer™-FRET B/G substrate mixture (CCF4-AM) was loaded into cells in the absence of direct strong lighting, covered, and incubated at room temperature for 2 h.

α2-adrenoceptor = target: T2, α2-adrenoceptor (Rattus norvegicus, UniProt P22909); assay: Competitive radioligand-binding assay, [3H]clonidine; conditions: for CPM: ADRA2, experiments 1-3, duplicates; for Affinity towards α2-adrenoceptors: summary table
T2 sequence (P22909 1-465): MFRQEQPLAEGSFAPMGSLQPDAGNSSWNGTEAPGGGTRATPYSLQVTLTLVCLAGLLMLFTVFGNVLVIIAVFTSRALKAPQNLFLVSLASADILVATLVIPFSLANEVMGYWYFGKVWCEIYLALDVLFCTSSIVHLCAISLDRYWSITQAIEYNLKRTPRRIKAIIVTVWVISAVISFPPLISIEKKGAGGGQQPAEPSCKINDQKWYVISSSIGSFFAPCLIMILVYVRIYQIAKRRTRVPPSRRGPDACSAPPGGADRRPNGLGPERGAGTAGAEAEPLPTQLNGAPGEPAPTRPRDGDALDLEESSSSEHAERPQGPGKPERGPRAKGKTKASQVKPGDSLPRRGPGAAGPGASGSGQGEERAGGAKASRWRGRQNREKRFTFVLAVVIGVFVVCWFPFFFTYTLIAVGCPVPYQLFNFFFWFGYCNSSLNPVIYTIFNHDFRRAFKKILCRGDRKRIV
Procedure: (§1) 10 mM stock solutions of test compounds were prepared in DMSO. Serial dilutions of compounds were prepared in 96-well microplate in assay buffers using an automated pipetting system epMotion 5070 (Eppendorf, Poland). Each compound was tested in 6 concentrations of 1.0E-05 to 1.0E-10 M (final concentration).
(§2) Affinity towards α1- and α2-adrenoceptors was evaluated using the competitive radioligand-binding assay. Experiments were conducted in the rat cerebral cortex. Radioligand [3H]prazosin (84,2 Ci/mmol, α1-adrenoceptor, PerkinElmer, Poland, NET823001MC) and [3H]clonidine (70.5 Ci/mmol, α2-adrenoceptor, PerkinElmer, Poland, NET613250UC) were used. The membrane preparation and the assay procedure were carried out accordingly as previously published. Radioactivity was counted on the MicroBeta2 scintillation counter (PerkinElmer, Poland). Data were fitted to a one-site curve-fitting equation with Prism 8 (GraphPad Software, USA), and Ki values were estimated from the Cheng–Prusoff equation.

α1-adrenoceptor = assay: Competitive radioligand-binding assay, [3H]prazosin; parameters: species or system rat
Procedure: as §1, §2

[1] = Blood pressure of anaesthetized normotensive rats; format: in vivo, rat; conditions: thiopental-anaesthetized rats
Procedure: Eighteen normotensive rats were anaesthetized with thiopental (70 mg/kg) by ip injection. The left carotid artery was cannulated with tubing filled with heparin solution in saline to facilitate pressure measurements using Apparatus PowerLab 4/35 (ADInstruments, Australia). Blood pressure was measured: before ip administration of 4-OH-Guanabenz at the doses of 2 or 5 or 10 mg/kg b.w. or water – time 0 min (control pressure) and continuously during the next 60 min.

[2] = ADRAA2A, agonist, concentration 1e-8
[3] = ADRAA2A, agonist, concentration 1e-7
[4] = ADRAA2A, agonist, concentration 1e-6
[5] = [3H] prazosin, rat cerebral cortex, mean ± SEM, n = 3, read-out: Ki

SMILES | Intrinsic activity at α2A-adrenoceptors (in words) (α2A-adrenoceptor) | % of max response (α2A-adrenoceptor; [2]) | % of max response (α2A-adrenoceptor; [3]) | % of max response (α2A-adrenoceptor; [4]) | CPM (α2-adrenoceptor; log of molar concentration -6) | CPM (α2-adrenoceptor; log of molar concentration -7) | CPM (α2-adrenoceptor; log of molar concentration -8) | CPM (α2-adrenoceptor; log of molar concentration -10) | Affinity towards α2-adrenoceptors (α2-adrenoceptor) | Ki (α1-adrenoceptor; [5]) [µM] | other results
N=C(N)N/N=C/c1c(Cl)cccc1Cl [Guanabenz] | Full agonist | 28.3106% and 18.1657% and 31.6251% | 69.7622% and 66.4917% and 70.9692% | 80.6636% and 82.7247% and 76.4282% | 89 CPM and 117 CPM and 99 CPM and 116 CPM and 125 CPM and 115 CPM | 120 CPM and 135 CPM and 148 CPM and 196 CPM and 133 CPM | 152 CPM and 165 CPM and 205 CPM and 265 CPM and 170 CPM | 320 CPM and 325 CPM and 437 CPM and 458 CPM and 265 CPM and 270 CPM | + | 0.253 | % of max response (α2A-adrenoceptor; ADRAA2A, agonist, concentration 1e-11): -0.6454% and -0.8183% and -1.252% and -0.7319%; % of max response (α2A-adrenoceptor; ADRAA2A, agonist, concentration 1e-10): -1.12% and -1.114% and -1.036% and -1.117%; % of max response (α2A-adrenoceptor; ADRAA2A, agonist, concentration 1e-9): 0.5496% and 0.2076% and -0.728% and 0.3786%; Emax (α2A-adrenoceptor; ADRAA2A, agonist, concentration 1e-8, read-out: % of max response): 34.9%; Emax (α2A-adrenoceptor; ADRAA2A, agonist, concentration 1e-7, read-out: % of max response): 72.2%; Emax (α2A-adrenoceptor; ADRAA2A, agonist, concentration 1e-6, read-out: % of max response): 72.2%; Ki (α1-adrenoceptor; ADRA1, experiment 1, 2, 3, read-out: Ki, single experiments): 0.259 µM and 0.25 µM and 0.251 µM; Affinity towards α1-adrenoceptors (α1-adrenoceptor; summary table): +
Cl.N=C(N)NN=Cc1c(Cl)cc(O)cc1Cl [4-OH-Guanabenz, 2-[(2,6-Dichloro-4-hydroxyphenyl)methylene]hydrazinecarboximidamide Hydrochloride] | Partial agonist | -0.7437% and -0.7189% and -0.7313% and -0.7282% | 2.887% and 2.799% and 3.482% | 33.4463% and 31.1405% and 34.9698% | 132 CPM and 157 CPM and 112 CPM and 131 CPM and 141 CPM | 198 CPM and 156 CPM and 131 CPM and 190 CPM and 205 CPM | 314 CPM and 316 CPM and 394 CPM and 302 CPM and 300 CPM | 404 CPM and 380 CPM and 358 CPM and 403 CPM and 400 CPM and 370 CPM | + | 3.86 ± 1.01 | effect on diastolic pressure (in words) ([1]; 10 mg/kg b.w., 10th minute after administration): short-term increase; effect on blood pressure (in words) ([1]; single dose 2 or 5 mg/kg b.w., vs water): not significantly different; % of max response (α2A-adrenoceptor; ADRAA2A, agonist, concentration 1e-5): 37.4215% and 35.9932% and 36.5487%; EC50 (α2A-adrenoceptor; agonist assay): 0.316 µM; activity relative to full agonist brimonidine (α2A-adrenoceptor; agonist assay, maximal activity reached): 30%; Emax (α2A-adrenoceptor; read-out: % of max response, ADRAA2A, agonist, concentration 1e-7): 2.71%; Emax (α2A-adrenoceptor; read-out: % of max response, ADRAA2A, agonist, concentration 1e-6): 28.8%; Emax (α2A-adrenoceptor; read-out: % of max response, ADRAA2A, agonist, concentration 1e-5): 34.6%; affinity toward α2-adrenoreceptor (in words) (α2-adrenoceptor): high affinity; CPM (α2-adrenoceptor; log of molar concentration -5): 78 CPM and 116 CPM and 96 CPM and 117 CPM and 113 CPM and 111 CPM; CPM (α2-adrenoceptor; log of molar concentration -9): 420 CPM and 340 CPM and 383 CPM and 296 CPM and 320 CPM and 437 CPM
